Data reported in patent US11690816B2, “Unit doses for immediate release of GHB or of one of the therapeutically acceptable salts thereof, administered orally, and the use thereof to maintain alcohol abstinence” (DEBREGEAS ET ASSOCIES PHARMA, priority 2016, dated 2023).

Tests used:
[1] = patients with moderate or severe liver disease, same administered dose; cited from earlier work
[2] = tested on: alcohol-dependent patients; experiment: phase IIb/III clinical trial, maintaining of alcohol abstinence (PDA, TAC, HDD); format: in vivo, human
Experimental: The following doses were examined: • 0.75 g sodium oxybate three times daily—i.e. 2.25 g per day (99 patients) • 1.25 g sodium oxybate three times daily—i.e. 3.75 g per day (99 patients) • 1.75 g sodium oxybate three times daily—i.e. 5.25 g per day (99 patients) • 2.25 g sodium oxybate three times daily—i.e. 6.75 g per day (100 patients) • Placebo group (99 patients)
The unit doses, packaged in sachets, were administered via oral route in solid form, more particularly in the form of granules.
Efficacy was measured via percentage days of abstinence (PDA), reduced daily intake of alcohol (TAC) and the number of heavy drinking days (HDD). It was sought to analyse the correlation between efficacy of treatment and dose in mg/kg/d. In this respect the conversion to mg/kg/d was made using the following formula: unit dose in g of sodium oxybate×3/patient weight.
In the remainder of the present description, reference is made to two categories of alcoholic patients: • patients with mild to moderate alcohol dependence; • patients with severe to very severe alcohol dependence.

[3] = AUC and CMax values dependent on the doses used; conditions: human, in vivo, oral
Text: The applicant has found the following AUC and CMax values, which are dependent on the doses used, for doses of 0.37 g, 0.75 g, 1.25 g and 1.75 g: […]

SMILES	increase of the main pharmacokinetic parameters compared with patients not suffering from liver disease [1]	efficacy as share of the efficacy of the optimal dose ([2]; mild or moderate alcohol dependence, doses higher than 1.25 g)	unit dose of optimum efficacy (statistical models) ([2]; mildly or moderately alcohol-dependent patients without liver disease, three times daily) [g]	side effects ([2]; severe or very severe alcohol dependence without liver disease, above 1.75 g three times daily)	optimum unit dose (polynomial regression models) ([2]; severe or very severe alcohol dependence, without liver disease, three times daily)	efficacy lower than that of the optimal dose ([2]; severe or very severe alcohol dependence, doses lower than 1.25 g or higher than 1.75 g)	AUC(0-t) ([3]; 0.37 g dose) [ng·h/mL]	Cmax ([3]; 0.37 g dose) [ng/mL]	AUC(0-t) ([3]; 0.75 g dose) [ng·h/mL]	Cmax ([3]; 0.75 g dose) [ng/mL]	AUC(0-t) ([3]; 1.25 g dose) [ng·h/mL]	Cmax ([3]; 1.25 g dose) [ng/mL]	AUC(0-t) ([3]; 1.75 g dose) [ng·h/mL]	Cmax ([3]; 1.75 g dose) [ng/mL]
O=C(O)CCCO [gamma-hydroxybutyric acid]	over 120%	–	–	–	–	–	–	–	–	–	–	–	–	–
O=C(O)CCCO [sodium oxybate]	–	about 20%	0.75	side effects become more numerous and frequent, in particular a sedative effect with nausea and marked fatigue	about 1.5 g	up to 80%	14800	11500	30000	23000	50000	39000	70000	54500
